Experiments:
Assay type in all cases: cell-based, mouse
RAW264.7 cells [1] = assay: Real time PCR, mRNA expression of pro and anti-inflammatory genes; settings: LPS and/or SSE, 24 h
Experimental: (§1) Total RNA was extracted from Raw264.7 cells using TRI reagent (Molecular Research Center, Inc. Cincinnati, Ohio) according to manufacturer instructions. RNA (4 μg) was reverse transcribed by oligo-dT priming (Stratascript 5.0 multi-temperature reverse transcriptase, Stratagene) according to manufacturer instructions. Real-time PCR amplification reactions were performed using SYBR Fast Universal Ready-mix Kit (Kappa Biosystems), using the MxPro QPCR instrument (Stratagene). Primers for real time PCR reactions were synthesized by Sigma, Israel.

RAW264.7 cells [2] = assay: Cell viability assay (XTT); settings: 24 h
Experimental: (§2) In-vitro experiments were performed on RAW264.7 mouse macrophage cell line and on bone marrow-derived macrophages (BMDM). RAW264.7 cells were grown in high glucose DMEM containing 10% FBS, 2 mM 1-glutamine and 1% penicillin/streptomycin. For BMDM: C57bl/6J mice at age 10 weeks were purchased from Envigo, Israel. BMDMs were isolated from femur and tibia bones. Mice were sacrificed using a CO2 chamber. Mice legs were cut off, while fur, flesh and muscle tissue were removed in sterile environment followed by disconnection of the tibia from the femur. Bone marrow content was washed out using a complete RPMI and 23G syringe followed by filtration of the supernatant through a 21G syringe. The cells were centrifuged at 450×g for 10 min at room temperature and the pellet was resuspended in RPMI containing 10% FBS, 1% penicillin/streptomycin, HEPES buffer (120 Mm) and M-CSF (50 μg/ml). The media was replaced every 3 days. The experiment was performed on the 7th day of differentiation.
RAW264.7 cells were seeded (5×10^4 cells/well) in 96-well plates, and incubated overnight followed by treatment with LPS (200 ng/ml) and/or SSE (70 μg/ml). Cell viability was determined by XTT assay (Biological Industries, Israel. Cat. No.: 20-300-1000) according to manufacturer instructions.

[3] = test system: bone marrow-derived macrophages (BMDM); assay: Cell morphology of bone marrow-derived macrophages; settings: LPS or SSE, 24 hr
Experimental: FIGS. 6A-6D show an immunomodulatory effect of SSE on bone marrow-derived macrophages (BMDM). BMDM were isolated and cultured as described in the methods. Cells were treated with LPS and/or SSE for 24 hr. A. micrographs of cells were performed by bright field Olympus imaging system. Upper two: left—control; right—LPS; lower two: left—SSE; right—LPS+SSE. B. NO synthesis was measured by Griess reagent as described in the methods. C. mRNA was isolated and expression of selected genes was measured by RT-PCR as described in the methods. Results were normalized to the expression of the housekeeping gene RPS29, and are presented as the Mean±SEM. *P<0.05, **P<0.005, ***P<0.001 ****P<0.0001 compared to control, or as indicated in graphs, by one-way Anova, followed by Bonferroni's post-test. D. Western-blot analysis was performed as described in the methods. These are representative results of 3 independent experiments.
In-vitro experiments were performed on RAW264.7 mouse macrophage cell line and on bone marrow-derived macrophages (BMDM). RAW264.7 cells were grown in high glucose DMEM containing 10% FBS, 2 mM 1-glutamine and 1% penicillin/streptomycin. For BMDM: C57bl/6J mice at age 10 weeks were purchased from Envigo, Israel. BMDMs were isolated from femur and tibia bones. Mice were sacrificed using a CO2 chamber. […]

[4] = test system: bone marrow-derived macrophages (BMDM); assay: mRNA expression in BMDM (RT-PCR); settings: 24 hr
Experimental: as §2, §1

RAW264.7 cells [5] = assay: Nitrite assay (Griess reagent), NO synthesis; settings: LPS and/or SSE, 24 h
Experimental: (§3) RAW264.7 cells (1×10^5 cells/ml) were cultured in 6-well plates. After 24 h incubating, NO synthesis was determined by assaying the culture supernatant for nitrite, using Griess reagent (Promega), according to manufacturer instructions.

NFκB in RAW264.7 cells = assay: NFκB activation (NFkB p65 Transcription Factor Assay Kit); settings: LPS 200 ng/ml, SSE 70 μg/ml
Experimental: RAW264.7 cells were treated with LPS (200 ng/ml) or SSE (70 μg/ml) for 3 h. NFκB activation was measured using NFkB p65 Transcription Factor Assay Kit (Abcam, Cambridge, UK), according to manufacturer instructions. In this assay, nuclear proteins were extracted using extraction buffer supplied by Abcam. The samples were homogenized and centrifuged at 12,000 RPM for 1 min. The supernatant was collected and protein concentration was measured using the Bradford method. Nuclear protein extract (5 μg) was added to the wells, which were coated with DNA sequence containing the NFkB response element. The selective binding of the transcription factor to its DNA response element was measured according to manufacturer's instructions.

RAW264.7 cells [6] = assay: Cell morphology, bright field micrographs; settings: LPS or SSE, 24 h
Experimental: FIGS. 3A-3B show increased viability and affected cell morphology in […] cells in response to SSE treatment. RAW264.7 cells were treated with lipopolysaccharide (LPS) or SSE for 24 h. A. Viability was measured by XTT assay. Results are presented as the Mean±SEM, *P<0.05, **P<0.005, ***P<0.001 by one-way Anova, followed by Bonferroni's post-test. B. Micrographs of cells were performed using bright field Olympus imaging system, ×20 magnification. Upper two: left—control; right—LPS; lower two: left—SSE; right—LPS+SSE.
as §2, with “The cells were centrifuged at 450×g for 10 min at room temperature and the pellet was resuspended in RPMI containing 10% FBS, 1% penicillin/streptomycin, HEPES buffer (120 Mm) and M-CSF (50 μg/ml). The media was replaced every 3 days. The experiment was performed on the 7th day of differentiation.” left out

RAW264.7 cells [7] = assay: Western blot analysis of MAPK, STAT and Akt phosphorylation
Experimental: RAW264.7 cells were treated with LPS (200 ng/ml) and/or SSE (70 μg/ml) for 24 hr. Protein were lysed using RIPA buffer supplemented with protease and phosphatase inhibitors. The samples were homogenized and centrifuged at 14,000 rpm for 15 min. The supernatant was collected and protein concentration was measured using the Bradford method. Proteins (20 μg per lane) were separated by SDS-polyacrylamide gel electrophoresis and transferred onto nitrocellulose membranes. The membranes were blocked in 5% dry milk solution, incubated with the appropriate antibody solutions (5% BSA in 0.01% TBST) and proteins were immunodetected using the enhanced chemiluminescence method.

[8] = test system: bone marrow-derived macrophages (BMDM); assay: NO secretion of BMDM (Griess reagent); settings: 24 hr
Experimental: as §2, §3

[9] = test system: bone marrow-derived macrophages (BMDM); assay: Western blot analysis of MAPK phosphorylation in BMDM
Experimental: as §2
RAW264.7 cells were treated with LPS (200 ng/ml) and/or SSE (70 μg/ml) for 24 hr. Protein were lysed using RIPA buffer supplemented with protease and phosphatase inhibitors. The samples were homogenized and centrifuged at 14,000 rpm for 15 min. The supernatant was collected and protein concentration was measured using the Bradford method. […]

[10] = LPS 200 ng/ml or SSE 70 μg/ml, 24 hr

lipopolysaccharide [LPS]
mRNA expression of IL1β (RAW264.7 cells [1]): increased | mRNA expression of IL-6 (RAW264.7 cells [1]): increased | mRNA expression of MCP-1 (RAW264.7 cells [1]): increased | mRNA expression of TNFα (RAW264.7 cells [1]): increased | proliferation rate (viability by XTT) (RAW264.7 cells [2]): stimulatory effect | morphology of BMDM [3]: enlargement of the cells, with a minor vacuolization | mRNA expression of Arg1 [4]: also increased | mRNA expression of IL1β [4]: stimulated | mRNA expression of IL-6 [4]: stimulated | mRNA expression of IL-10 [4]: also increased | mRNA expression of MCP-1 [4]: stimulated | mRNA expression of TNFα [4]: stimulated | NO synthesis (nitrite in supernatant) (RAW264.7 cells [5]): increased | NFκB activation (binding of NFκB to its DNA response element) (NFκB in RAW264.7 cells): increased | morphology of cells (RAW264.7 cells [6]): flattened, increased in size and acquired a distinct dendritic morphology | Akt phosphorylation (RAW264.7 cells [7]): induced | STAT1 phosphorylation (RAW264.7 cells [7]): not affected | STAT3 phosphorylation on S727 residue (RAW264.7 cells [7]): induced to be phosphorylated | ERK1/2 phosphorylation (RAW264.7 cells [7]; [10]): phosphorylated | JNK phosphorylation (RAW264.7 cells [7]; [10]): phosphorylated | p38 phosphorylation (RAW264.7 cells [7]; [10]): phosphorylated | STATS phosphorylation (RAW264.7 cells [7]; data not shown): not detected at all | NO secretion (basal) [8]: significantly increased | Erk phosphorylation [9]: phosphorylated | P38 phosphorylation [9]: increased

Reference: US20220133831A1, “Sarcopoterium Spinosum Extract for Treating Inflammation” (Ariel Scientific Innovations Ltd., priority 2019, published 2022)
